Data reported in US10316017B2, “COT modulators and methods of use thereof” (Gilead Sciences, Inc., priority 2015, dated 2019).

What was measured:
[1] = target: T1, human Cot catalytic domain (30-397 amino acids) (Homo sapiens, UniProt P41279); assay: High Throughput Cot Biochemical Assay (KinEASE TR-FRET); details: Cot biochemical HTRF (KinEASE TR-FRET) assay; read-out: IC50 HTRF
T1 construct: Purified recombinant human Cot catalytic domain (30-397 amino acids) was purchased from Cama Biosciences; purchased Cama Biosciences (so in the source)
T1 sequence (P41279 30-397): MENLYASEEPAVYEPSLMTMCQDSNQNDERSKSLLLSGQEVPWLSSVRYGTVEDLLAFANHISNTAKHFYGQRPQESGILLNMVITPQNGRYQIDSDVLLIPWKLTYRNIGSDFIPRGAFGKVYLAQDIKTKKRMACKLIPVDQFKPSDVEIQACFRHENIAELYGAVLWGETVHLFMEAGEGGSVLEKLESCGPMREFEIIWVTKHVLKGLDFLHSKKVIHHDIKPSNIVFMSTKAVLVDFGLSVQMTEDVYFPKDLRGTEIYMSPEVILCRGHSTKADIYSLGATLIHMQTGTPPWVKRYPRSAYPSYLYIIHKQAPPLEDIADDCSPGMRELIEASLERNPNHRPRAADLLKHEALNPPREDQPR
Outline: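 First, purified human Cot (aa 30-397) at 5 nM phosphorylates an XL665-labeled STK3 peptide (1 μM) at 400 μM ATP, pH 7.0, 0.1% DMSO. Then a europium-conjugated phospho-specific antibody binds the product, giving the TR-FRET signal.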

[2] = tested on: TNFα production in LPS-stimulated human monocytes; assay: Cot Monocyte TNFα Cell Based Assay; details: Homo sapiens, Monocyte, TNFα in LPS-stimulated human monocytes; read-out: EC50 TNF
Outline: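 5,000 cells/well; cmpd 1 h, 37 °C, 0.5% DMSO final; LPS 50 pg/ml, 4 h, 37 °C; media TNFα by HTRF sandwich (cryptate/XL665), RT overnight; % control vs unstimulated/stimulated wells.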

Structure (SMILES)	IC50 [1] [nM]	EC50 [2] [nM]
CC(C)(C)N1CCC(n2cc([C@@H](Nc3cc(Cl)c4ncc(C#N)c(Nc5ccc(F)c(Cl)c5)c4c3)c3cccc(C(=O)N4CCCCC4)c3)nn2)CC1 [Example 676, (S)-6-(((1-(1-(tert-butyl)piperidin-4-yl)-1H-1,2,3-triazol-4-yl)(3-(piperidine-1-carbonyl)phenyl)methyl)amino)-8-chloro-4-((3-chloro-4-fluorophenyl)amino)quinoline-3-carbonitrile]	6	434
CC[C@@H](Nc1c(C#N)cnc2c(Cl)cc(N[C@@H](c3ccc(Cl)cc3)c3cn(C4CCN(C(C)(C)C)CC4)nn3)cc12)c1ccccc1 [Example 677, 6-(((S)-(1-(1-(tert-butyl)piperidin-4-yl)-1H-1,2,3-triazol-4-yl)(4-chlorophenyl)methyl)amino)-8-chloro-4-(((R)-1-phenylpropyl)amino)quinoline-3-carbonitrile]	10	809
Cc1ccc(CNc2c(C#N)cnc3c(Cl)cc(N[C@@H](c4ccc(Cl)cc4)c4cn(C5CCN(C(C)(C)C)CC5)nn4)cc23)cc1 [Example 678, (S)-6-(((1-(1-(tert-butyl)piperidin-4-yl)-1H-1,2,3-triazol-4-yl)(4-chlorophenyl)methyl)amino)-8-chloro-4-((4-methylbenzyl)amino)quinoline-3-carbonitrile]	1430	5690
Cc1ccccc1CNc1c(C#N)cnc2c(Cl)cc(N[C@@H](c3ccc(Cl)cc3)c3cn(C4CCN(C(C)(C)C)CC4)nn3)cc12 [Example 680, (S)-6-(((1-(1-(tert-butyl)piperidin-4-yl)-1H-1,2,3-triazol-4-yl)(4-chlorophenyl)methyl)amino)-8-chloro-4-((2-methylbenzyl)amino)quinoline-3-carbonitrile]	44	6750
CC(C)(C)N1CCC(n2cc([C@@H](Nc3cc(Cl)c4ncc(C#N)c(NCCCc5ccccc5)c4c3)c3ccc(Cl)cc3)nn2)CC1 [Example 681, (S)-6-(((1-(1-(tert-butyl)piperidin-4-yl)-1H-1,2,3-triazol-4-yl)(4-chlorophenyl)methyl)amino)-8-chloro-4-((3-phenylpropyl)amino)quinoline-3-carbonitrile]	434	12800
CC(C)Nc1c(C#N)cnc2c(Cl)cc(N[C@@H](c3ccc(Cl)cc3)c3cn(C4CCN(C(C)(C)C)CC4)nn3)cc12 [Example 682, (S)-6-(((1-(1-(tert-butyl)piperidin-4-yl)-1H-1,2,3-triazol-4-yl)(4-chlorophenyl)methyl)amino)-8-chloro-4-(isopropylamino)quinoline-3-carbonitrile]	599	15700
CCCCNc1c(C#N)cnc2c(Cl)cc(N[C@@H](c3ccc(Cl)cc3)c3cn(C4CCN(C(C)(C)C)CC4)nn3)cc12 [Example 683, (S)-6-(((1-(1-(tert-butyl)piperidin-4-yl)-1H-1,2,3-triazol-4-yl)(4-chlorophenyl)methyl)amino)-4-(butylamino)-8-chloroquinoline-3-carbonitrile]	165	7250
CN(C)Cc1ccc(Nc2c(C#N)cnc3c(Cl)cc(N[C@@H](c4ccc(Cl)cc4)c4cn(C5CCN(C(C)(C)C)CC5)nn4)cc23)cc1 [Example 684, (S)-6-(((1-(1-(tert-butyl)piperidin-4-yl)-1H-1,2,3-triazol-4-yl)(4-chlorophenyl)methyl)amino)-8-chloro-4-((4-((dimethylamino)methyl)phenyl)amino)quinoline-3-carbonitrile]	7350	6040
N#Cc1cnc2c(Cl)cc(N[C@@H](c3ccccc3)c3cn([C@@H]4CCNC[C@@H]4F)nn3)cc2c1Nc1ccc(F)c(Cl)c1 [Example 685, 8-chloro-4-((3-chloro-4-fluorophenyl)amino)-6-(((S)-(1-((3S,4R)-3-fluoropiperidin-4-yl)-1H-1,2,3-triazol-4-yl)(phenyl)methyl)amino) quinoline-3-carbonitrile]	16	359
CC(C)(C)N1CCC(n2cc([C@@H](Nc3cc(Cl)c4ncc(C#N)c(Nc5ccc6c(cnn6Cc6ccccc6)c5)c4c3)c3ccc(Cl)cc3)nn2)CC1 [Example 686, (S)-4-((1-benzyl-1H-indazol-5-yl)amino)-6-(((1-(1-(tert-butyl)piperidin-4-yl)-1H-1,2,3-triazol-4-yl)(4-chlorophenyl)methyl)amino)-8-chloroquinoline-3-carbonitrile]	7240	5900
N#Cc1cnc2c(Cl)cc(N[C@@H](c3ccc(Cl)cc3)c3c[nH]nn3)cc2c1Nc1ccc(Cl)c(Cl)c1 [Example 688, (S)-8-chloro-6-(((4-chlorophenyl)(1H-1,2,3-triazol-4-yl)methyl)amino)-4-((3,4-dichlorophenyl)amino)quinoline-3-carbonitrile]	621	1250
CC(C)(C)N1CCC(n2cc([C@@H](Nc3cc(C#N)c4ncc(C#N)c(Nc5ccc(F)c(Cl)c5)c4c3)c3ccc(Cl)cc3)nn2)CC1 [Example 689, (S)-6-(((1-(1-(tert-butyl)piperidin-4-yl)-1H-1,2,3-triazol-4-yl)(4-chlorophenyl)methyl)amino)-4-((3-chloro-4-fluorophenyl)amino)quinoline-3,8-dicarbonitrile]	11	343
CNC(=O)c1cccc([C@H](Nc2cc(Cl)c3ncc(C#N)c(Nc4ccc(F)c(Cl)c4)c3c2)c2cn(C3CCN(C(C)(C)C)CC3)nn2)c1 [Example 690, (S)-3-((1-(1-(tert-butyl)piperidin-4-yl)-1H-1,2,3-triazol-4-yl)((8-chloro-4-((3-chloro-4-fluorophenyl)amino)-3-cyanoquinolin-6-yl)amino)methyl)-N-methylbenzamide]	2	317
CC(C)(C)N1CCC(n2cc([C@@H](Nc3cc(Cl)c4ncc(C#N)c(Nc5ccc(F)c(Cl)c5)c4c3)c3cccc(C(=O)N4CCCC4)c3)nn2)CC1 [Example 691, (S)-6-(((1-(1-(tert-butyl)piperidin-4-yl)-1H-1,2,3-triazol-4-yl)(3-(pyrrolidine-1-carbonyl)phenyl)methyl)amino)-8-chloro-4-((3-chloro-4-fluorophenyl)amino)quinoline-3-carbonitrile]	2	90

Results, then the compound that gave them:

IC50 [1] [nM]	EC50 [2] [nM]	Structure (SMILES)
355	12500	Cc1cccc(CNc2c(C#N)cnc3c(Cl)cc(N[C@@H](c4ccc(Cl)cc4)c4cn(C5CCN(C(C)(C)C)CC5)nn4)cc23)c1 [Example 679, (S)-6-(((1-(1-(tert-butyl)piperidin-4-yl)-1H-1,2,3-triazol-4-yl)(4-chlorophenyl)methyl)amino)-8-chloro-4-((3-methylbenzyl)amino)quinoline-3-carbonitrile]
40	2830	Cc1c(Cl)cccc1Nc1c(C#N)cnc2c(Cl)cc(N[C@@H](c3ccc(Cl)cc3)c3cn(C4CCN(C(C)(C)C)CC4)nn3)cc12 [Example 687, (S)-6-(((1-(1-(tert-butyl)piperidin-4-yl)-1H-1,2,3-triazol-4-yl)(4-chlorophenyl)methyl)amino)-8-chloro-4-((3-chloro-2-methylphenyl)amino)quinoline-3-carbonitrile]
51	797	CC(C)(C)N1CCC(n2cc([C@@H](Nc3cc(Cl)c4ncc(C#N)c(Nc5cncc(Cl)c5)c4c3)c3ccc(Cl)cc3)nn2)CC1 [Example 692, (S)-6-(((1-(1-(tert-butyl)piperidin-4-yl)-1H-1,2,3-triazol-4-yl)(4-chlorophenyl)methyl)amino)-8-chloro-4-((5-chloropyridin-3-yl)amino)quinoline-3-carbonitrile]
46	1540	CC(C)(C)N1CCC(n2cc([C@@H](Nc3cc(Cl)c4ncc(C#N)c(Nc5cc(Cl)c(F)cc5F)c4c3)c3ccc(Cl)cc3)nn2)CC1 [Example 693, (S)-6-(((1-(1-(tert-butyl)piperidin-4-yl)-1H-1,2,3-triazol-4-yl)(4-chlorophenyl)methyl)amino)-8-chloro-4-((5-chloro-2,4-difluorophenyl)amino)quinoline-3-carbonitrile]
20	843	CC(C)(C)N1CCC(n2cc([C@@H](Nc3cc(Cl)c4ncc(C#N)c(Nc5c(F)ccc(Cl)c5F)c4c3)c3ccc(Cl)cc3)nn2)CC1 [Example 694, (S)-6-(((1-(1-(tert-butyl)piperidin-4-yl)-1H-1,2,3-triazol-4-yl)(4-chlorophenyl)methyl)amino)-8-chloro-4-((3-chloro-2,6-difluorophenyl)amino)quinoline-3-carbonitrile]
19	434	CC(C)(C)N1CCC(n2cc([C@@H](Nc3cc(Cl)c4ncc(C#N)c(Nc5ccc(F)c(Cl)c5F)c4c3)c3ccc(Cl)cc3)nn2)CC1 [Example 695, (S)-6-(((1-(1-(tert-butyl)piperidin-4-yl)-1H-1,2,3-triazol-4-yl)(4-chlorophenyl)methyl)amino)-8-chloro-4-((3-chloro-2,4-difluorophenyl)amino)quinoline-3-carbonitrile]
85	3290	CC(C)(C)N1CCC(n2cc([C@@H](Nc3cc(Cl)c4ncc(C#N)c(Nc5cc(F)cc(Cl)c5)c4c3)c3ccc(Cl)cc3)nn2)CC1 [Example 696, (S)-6-(((1-(1-(tert-butyl)piperidin-4-yl)-1H-1,2,3-triazol-4-yl)(4-chlorophenyl)methyl)amino)-8-chloro-4-((3-chloro-5-fluorophenyl)amino)quinoline-3-carbonitrile]
